Legend:
DRG neurons = experiment: whole-cell patch clamp of cultured DRG neurons treated with IL-6 and eFT508; assay type: cell-based, mouse
Experimental: Phosphorylation of the 5′ cap-binding protein eIF4E by MAPK interacting kinases MNK1/2 is important for nociceptor sensitization and the development of chronic pain. IL-6 induced DRG nociceptor excitability is attenuated in mice lacking eIF4E phosphorylation, in MNK1/2^−/− mice and by the nonselective MNK1/2 inhibitor cercosporamide. […] Dorsal root ganglion (DRG) neurons were cultured from male and female ICR mice, 4-7 weeks old. […] Whole-cell patch clamp recordings were done on small diameter neurons (20-30 pF) to measure membrane excitability in response to ramp depolarization. […] These findings are consistent with a model wherein MNK-eIF4E signaling controls the translation of signaling factors that regulate T-type VGCCs in response to IL-6 treatment.

[1] = test system: eIF4E phosphorylation at serine 209; conditions: in vitro, tumor cell lines; read-out: IC50, reduction of eIF4E phosphorylation at serine 209; cited from earlier work
SNI mice [2] = experiment: mechanical withdrawal threshold (von Frey) after SNI; assay type: in vivo, mouse; conditions: 1 or 3 hours after treatment on days 1 and 5 of 7-day schedule, 10 mg/kg p.o.
Experimental: (§1) Surgery. Spared nerve injury (SNI) was performed by the ligation and cutting of the tibial and peroneal branches of the left sciatic nerve trifurcation, leaving the sural branch intact as previously described (Decosterd and Woolf, 2000). Sham surgeries were performed the same way but without cutting the nerve. Mice were allowed to recover for 2 weeks following surgery.
Mechanical withdrawal threshold. Tactile sensitivity was measured by probing the left outer surface of the left hindpaw with a series of calibrated von Frey filaments. Mechanical withdrawal thresholds were assessed in all animals before (baseline) and after (2 weeks) surgery to confirm neuropathy. Withdrawal thresholds were calculated using the up-down method (Chaplan et al., 1994).

[3] = test system: cultured mouse DRG neurons; experiment: microelectrode array (MEA) recordings of cultured DRG neurons exposed to IL-6; assay type: cell-based; conditions: for spontaneous firing: IL-6 100 ng/ml, tomivosertib 25 nM co-treatment
Experimental: Extracellular electrophysiology. Substrate-integrated microelectrode array (MEA) recordings were performed using PDL and laminin pre-treated 12-well MEA plates (Axion Biosystems, USA) and an Axion Maestro recording system. DRG sensory neurons were dissected, dissociated, and seeded as previously described (Moy et al., 2017). […] Cultures were maintained at 37° C., 5% CO2, and ≥90% humidity throughout the recordings. Briefly, 30 min baseline recordings were carried out following a 30 min acclimation period. […] Recordings were then collected continuously for 3 hours. […] Online and offline MEA data analysis was performed using Axion's AxIS, NeuralMetrics Tools, and NeuroExplorer (NeuroExplorer, USA). Physiologically relevant extracellular action potentials were defined as previously described^29.

SNI mice [4] = experiment: conditioned place preference (CPP) after SNI; assay type: in vivo, mouse; conditions: WT SNI, 10 mg/kg i.p., single conditioning day
Experimental: Conditioned Place Preference. A previously published CPP protocol from the Walters laboratory protocol was used (Yang et al., 2014). The CPP box consisted of one black and one white chamber connected by a striped chamber. CPP was conducted in a dark room with a single low lumens light source (Maia 69E120-WH). The middle chamber of the CPP box was brightly illuminated to discourage mice from spending time in the middle chamber. […] On day 1 of testing (preconditioning), each mouse was permitted to explore the middle and black (but not white) chambers for 30 minutes. […] On the last day of CPP, each mouse was placed in the middle chamber with unrestricted access to all chambers and video-recorded for 10 min. Data are presented as the percent change in time spent in the drug-paired chambered compared to the control (vehicle or sham for each genotype or surgery). This was calculated by dividing each animal's time spent in the white box by the control average, multiplying by 100 and then subtracting 100.
as §1

DLBCL cell lines = conditions: cited from earlier work
mice = experiment: rotarod; assay type: in vivo, mouse; conditions: 10 mg/kg i.p., 1 hour
Experimental: Rotarod. Motor function was assessed using a rotarod (IITC Life Science rotarod series 8) with ramp speed (20 rpm acceleration) at a starting speed of […] for a maximum of 120s. The time until each animal fell was recorded for each trial. Naïve mice were trained for 1 trial, and then 2 baseline trials were conducted and scores for both trials were averaged.

paclitaxel-treated mice = experiment: thermal latency (Hot/Cold plate) in paclitaxel-induced CIPN; assay type: in vivo, mouse; conditions: for thermal hyperalgesia: acute treatment
Experimental: Thermal and mechanical testing. Mice were housed on 12-hr light-/dark cycles with lights on at 7:00 AM. Mice had food and water available ad libitum. All behavioral experiments were performed between the hours of 9:00 AM and 6:00 PM. Mice were randomized to groups from multiple cages to avoid using mice from experimental groups that were cohabitating. Sample size was estimated as […] using a power calculation with 80% power, expectations of 50% effect size, with alpha set to 0.05. The number of animals used in each experiment was based on available animals of the appropriate sex and age but was at least n=5 for experiments. Standard deviation for power calculations was based on previously published data using similar models. Mice were habituated for 1 hr to clear acrylic behavioral chambers before beginning the experiment. Mechanical paw withdrawal thresholds were measured using the up-down method (Chaplan et al., 1994) with calibrated Von Frey filaments (Stoelting Company, Wood Dale, Ill.). Thermal latency was measured using a Hot/Cold plate setting the temperature at 49, 50 and 52° C. […] The experimenter was blinded to the genotype of the mice and drug condition in all experiments.

Compound: Cc1cc(Nc2cc(N)ncn2)c(=O)n2c1C(=O)NC21CCCCC1 [eFT508, Tomivosertib]
- latency to the first action potential in the ramp protocol (DRG neurons; IL-6, eFT508 pretreatment): rescued
- action potential firing in response to ramp depolarization (DRG neurons; one hr IL-6, eFT508 pretreatment followed by IL-6): blocked
- IC50 [1]: 2 to 16 nM
- mechanical withdrawal thresholds (SNI mice [2]): had no effect
- firing, tomivosertib only vs IL-6 only group ([3]; 25 nM): reduction in firing
- spontaneous firing ([3]; listed as Tomivosertib): significantly reduced
- spontaneous firing ([3]; listed as tomivosertib): attenuated
- firing rate at treatment time points vs baseline recording ([3]; tomivosertib only group): no significant difference in firing rate
- more time in the drug-paired (white) chamber vs SNI animals that received vehicle (SNI mice [4]): ~40%
- production of pro-inflammatory cytokines including TNFα, IL-6, IL-10 and CXCL10 (DLBCL cell lines; TMD8, OCI-Ly3 and HBL1 DLBCL cell lines): dose-dependent decreases
- decrease in TNFα mRNA half-life (DLBCL cell lines): 2 fold
- anti-proliferative activity (DLBCL cell lines; multiple DLBCL cell lines): anti-proliferative activity
- rotarod performance vs naïve mice (mice): no significant difference
- thermal hypersensitivity (paclitaxel-treated mice; 10 mg/kg after full development of CIPN): reversal
- thermal hyperalgesia (paclitaxel-treated mice; at 3 hrs): did not significantly attenuate
- thermal hyperalgesia (paclitaxel-treated mice; at 24 hrs): a significant effect was observed

Reference: US20220226321A1, “INHIBITOR OF MNK FOR THE TREATMENT OF NEUROPATHIC PAIN” (Board of Regents, The University of Texas System, priority 2019, published 2022)
